Source: US20220218664A1, “DRUG AND METHOD FOR TREATING OR PREVENTING COMPLICATIONS FROM DIABETES, USING SAID DRUG” (TMS Co., Ltd., priority 2019, published 2022)

Tests used:
Type in all cases: in vivo, C57BL/6J male mice
IL-1β = test: Inflammatory cytokine IL-1β in sciatic nerve (ELISA); details: 10 mg/kg i.p. once a day, 4th week
Experimental: (§1) 9-week-old C57BL/6J male mice were purchased and familiarized with an animal facility for 1 week. 200 mg/kg of streptozotocin (streptozotocin; STZ) was administered […] into the peritoneal cavity of 10-week-old mice to prepare streptozotocin-induced diabetic mice (hereinafter also referred to as “STZ administration week 0”). One week after the administration of streptozotocin, blood was collected from the tail vein of the mice, and the blood glucose level (BS) was measured using an automatic blood glucose measuring device (product name: Medisafe (trademark) Mini GR-102, made by Terumo (Co)). Mice having a blood glucose level of 400 mg/dL or more were determined to be diabetic mice.
(§2) The SMTP-44D groups, the edaravone group, and the pregabalin group were administered SMTP-44D (0.3 mg/kg, 3 mg/kg, or 30 mg/kg doses, respectively), edaravone (10 mg/kg dose), or pregabalin (10 mg/kg dose) into the peritoneal cavity once a day for 3 consecutive weeks from the day following the first week to the fourth week after STZ administration.
(§3) The sciatic nerves of the above-mentioned STZ group, SMTP-44D group (30 mg/kg), edaravone group, pregabalin group, and control group mice on the 4th week were homogenized using the RIPA buffer containing a protease inhibitor cocktail. Moreover, centrifugation was conducted at 4° C. for 15 minutes at 10,000 g, and the supernatant was collected and used for measuring TNF-α concentration (pg/mL), IL-1β concentration (pg/mL), IL-6 concentration (pg/mL), and total protein concentration (μg/mL), respectively. An ELISA assay kit was used for the TNF-α, IL-1β, and IL-6 concentrations. The total protein concentration was measured by using a Pierce (trademark) BCA Protein Assay Kit. The inflammatory cytokine level (pg/mg protein) in the total protein was calculated from the TNF-α concentration (pg/mL), IL-1β concentration (pg/mL), and IL-6 concentration (pg/mL), and total protein concentration (μg/mL).

[1] = Body weight (BW) in streptozotocin-induced diabetic mice; details: 10 mg/kg i.p. once a day
Experimental: as §1, §2
(§4) For the above-mentioned STZ group, SMTP-44D groups, edaravone group, pregabalin group, and control group mice, the following measurements were conducted every week from the 0th week, which began on the day when streptozotocin (STZ) was administered, to the 4th week (that is, a total of five times). As algesia tests, the following von Frey test and hot plate test were conducted, and hind plantar blood flow, body weight (BW), and blood glucose level (BS) were measured using the above-mentioned automatic blood glucose measure device. Note, for example, the 0th week represents the 0th day. That is, the measurements were conducted on the 0th, 7th, 14th, 21st, and 28th days.

[2] = test system: streptozotocin-induced diabetic mice; test: Blood glucose level (BS) in streptozotocin-induced diabetic mice; details: 10 mg/kg i.p. once a day
Experimental: as §1, §2, §4

[3] = test system: streptozotocin-induced diabetic mice; test: Hot plate test: evaluating thermal stimulus; details: 10 mg/kg i.p. once a day
Experimental: as §1, §2
The above-mentioned STZ group, SMTP-44D groups, edaravone group, pregabalin group, and control group mice were put in grid-like boxes, respectively, and were left for 30 minutes. After having been left, an acrylic disc (diameter: 20 cm; height (that is, thickness of the acrylic disc): […]) was placed on an EC hot plate (model number: EC1200) maintained at 49 to 50° C., and the mice were put on the acrylic disc. The measurements were started after the mice landed on the EC hot plate. The times from the mice landing to their action to jump or lick their hind legs were evaluated as thermal thresholds (seconds: s). Note, to avoid burns on their plantae, the measurements were ceased 30 seconds after beginning. The measurements were conducted three times at 30-minute intervals. A mean value of three thermal thresholds (seconds: s) was calculated for 1 mouse, and then a mean value of the 12 mice for the respective groups was found.

IL-6 = test: Inflammatory cytokine IL-6 in sciatic nerve (ELISA); details: 10 mg/kg i.p. once a day, 4th week
Experimental: as §1, §2, §3

[4] = 0th week (before dosing), listed as pregabalin
[5] = 1st week (before dosing), listed as pregabalin

SMILES: CC(C)C[C@H](CN)CC(=O)O [Pregabalin, pregabalin]
- IL-1β (IL-1β): 58.04 ± 4.47 pg/mg protein
- IL-1β (IL-1β; listed as pregabalin): 58.04±4.47 pg/mg protein
- Body weight decrease between the 0th week and 4th week [1]: 1.4 g
- BW (body weight) ([1]; 0th week (before dosing)): 21.8 ± 0.3 g
- BW (body weight) [1, 4]: 21.8 ± 0.3 g
- BW (body weight) ([1]; 1st week (before dosing)): 21.4 ± 0.3 g
- BW (body weight) [1, 5]: 21.4 ± 0.3 g
- BW (body weight) ([1]; 2nd week): 21.3 ± 0.4 g
- BW (body weight) ([1]; 2nd week, listed as pregabalin): 21.3 ± 0.4 g
- BW (body weight) ([1]; 3rd week): 21.0 ± 0.2 g
- BW (body weight) ([1]; 3rd week, listed as pregabalin): 21.0 ± 0.2 g
- BW (body weight) ([1]; 4th week): 20.4 ± 0.2 g
- BW (body weight) ([1]; 4th week, listed as pregabalin): 20.4 ± 0.2 g
- BS (blood glucose level) ([2]; 0th week (before dosing)): 192.2 ± 5.3 mg/dL
- BS (blood glucose level) [2, 4]: 192.2 ± 5.3 mg/dL
- BS (blood glucose level) ([2]; 1st week (before dosing)): 562.7 ± 25.6 mg/dL
- BS (blood glucose level) [2, 5]: 562.7 ± 25.6 mg/dL
- BS (blood glucose level) ([2]; 2nd week): 639.1 ± 44.7 mg/dL
- BS (blood glucose level) ([2]; 2nd week, listed as pregabalin): 639.1 ± 44.7 mg/dL
- BS (blood glucose level) ([2]; 3rd week, listed as pregabalin): 657.2 ± 38.7 mg/dL
- BS (blood glucose level) ([2]; 4th week): 582.3 ± 38.2 mg/dL
- BS (blood glucose level) ([2]; 4th week, listed as pregabalin): 582.3 ± 38.2 mg/dL
- Hot plate test thermal threshold ([3]; 0th week (before dosing)): 22.2 ± 0.8 s
- Hot plate test thermal threshold [3, 4]: 22.2 ± 0.8 s
- Hot plate test thermal threshold ([3]; 1st week (before dosing)): 15.7 ± 0.7 s
- Hot plate test thermal threshold [3, 5]: 15.7 ± 0.7 s
- Hot plate test thermal threshold ([3]; 2nd week): 17.3 ± 1.1 s
- Hot plate test thermal threshold ([3]; 2nd week, listed as pregabalin): 17.3 ± 1.1 s
- Hot plate test thermal threshold ([3]; 3rd week): 17.7 ± 0.9 s
- Hot plate test thermal threshold ([3]; 3rd week, listed as pregabalin): 17.7 ± 0.9 s
- Hot plate test thermal threshold ([3]; 4th week): 17.9 ± 1.1 s
- Hot plate test thermal threshold ([3]; 4th week, listed as pregabalin): 17.9 ± 1.1 s
- IL-6 (IL-6): 166.60 ± 13.57 pg/mg protein
- IL-6 (IL-6; listed as pregabalin): 166.60±13.57 pg/mg protein
